The values below come from patent US20250243160A1, “INDOLE DERIVATIVES FOR TARGETING AUTOPHAGY” (Automera PTE. LTD, priority 2024, published 2025).

Chain of Recombinant p62 protein (Q13501 whole entry, species assumed): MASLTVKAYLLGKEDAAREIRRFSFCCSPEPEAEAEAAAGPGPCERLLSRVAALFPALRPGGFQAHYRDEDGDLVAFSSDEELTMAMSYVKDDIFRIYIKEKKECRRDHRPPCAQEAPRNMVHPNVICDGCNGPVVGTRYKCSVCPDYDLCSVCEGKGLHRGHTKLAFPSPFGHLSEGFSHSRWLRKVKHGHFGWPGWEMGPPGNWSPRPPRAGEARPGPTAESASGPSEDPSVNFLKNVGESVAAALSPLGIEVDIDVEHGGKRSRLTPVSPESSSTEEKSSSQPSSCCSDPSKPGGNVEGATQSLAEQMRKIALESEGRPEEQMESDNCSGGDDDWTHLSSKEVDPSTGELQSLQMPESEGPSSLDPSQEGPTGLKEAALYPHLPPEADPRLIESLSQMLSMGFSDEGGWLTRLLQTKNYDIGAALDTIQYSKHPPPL

The test system of one assay is p62 puncta. The assay is described as follows: p62 puncta immunocytochemistry imaging in HeLa cells. The settings on record: 24 hours treatment, relative to vehicle control (DMSO). Type of assay: cell-based. How it is done: HeLa cells were seeded in coated 96-well plates (10,000 cells) and allowed to adhere overnight. After 24 hours of treatment with either vehicle (DMSO) or test compounds, the media was discarded, and cells were rinsed with ice-cold 1×PBS before fixation by 4% formaldehyde or paraformaldehyde for 20 min. Cells were then washed with 1×PBS and permeabilized with 0.1% Triton X-100 in PBS for 20 min and blocked with Blocking Buffer in PBS for 1 hour. The cells were incubated thereafter for 1 hour with anti-p62 primary antibody in Blocking Buffer, followed by incubation with secondary antibody for 1 hour. DAPI dye was used to visualize nuclei of fixed cells. The blocking buffer used were 5% Fetal Bovine Serum (FBS, ThermoFIsher Scientific, 10270106) and Li-cor Intercept (PBS) Blocking Buffer (Li-cor, 927-70001). The primary antibody used was mouse anti-p62 primary antibody (Novus Biologicals, H00008878-M01). The secondary antibodies used were goat anti-mouse Alexa Fluor Plus 488 secondary antibody (Invitrogen, GOXMS) and goat anti-mouse Alexa Fluor 488 secondary antibody (Invitrogen, A-11029). The DAPI dyes used were DAPI dye (Invitrogen, 62248) and DAPI dye (Invitrogen, D1306).
For the EVOS M7000 System, cells were imaged on the EVOS M7000 microscope using a 20× air objective (Nikon, N.A 0.45). DAPI and p62 channels were illuminated with LED light cubes using integrated hard-coated filter sets for DAPI (357/447 nm) and GFP (470/525 nm) respectively. Images were analysed for p62 puncta count on the Celeste 6.0 software.
For the Operetta CLS System, cells were imaged on the Operetta CLS using a 63× water objective on the DAPI and Alexa 488 channels. Images were analysed for p62 puncta count on the Harmony 5.1 software.
HeLa cells were treated with compounds for 24 hours to evaluate the effect of these compounds on p62 puncta activity. The resulting changes in levels of p62 puncta were assessed by imaging, either on the EVOS M7000 or Operetta CLS systems as described in experimental procedures. The fold change of p62 puncta levels induced by compound treatment relative to vehicle control (DMSO) was determined and summarized in Table 10.
On to `CNCCOCc1cccc2c1ccn2Cc1ccccc1` [Compound 5, 2-((1-benzyl-1H-indol-4-yl)methoxy)-N-methylethan-1-amine], for which the “p62 puncta (fold change of p62 puncta levels)” value is “+ (<2-fold change in p62 puncta levels relative to DMSO control)”. Same read-out and setting: next, `CC(O)CNCc1cccc2c1ccn2Cc1ccccc1` (centres unmarked) [Compound 3]: “+ (<2-fold change in p62 puncta levels relative to DMSO control)”. Take `OCCNCc1cccc2c1ccn2CC1CCCCN1` (centres unmarked) [Compound 54]: the “p62 puncta (fold change of p62 puncta levels)” value is reported as “++ (>2-fold change in p62 puncta levels relative to DMSO control)”.

`OC1CC(NCc2cccc3c2ccn3Cc2ccccc2)C1` (centres unmarked) [Compound 7]: the “p62 puncta (fold change of p62 puncta levels)” value was “+ (<2-fold change in p62 puncta levels relative to DMSO control)”.

The next assay has as its target Recombinant p62 protein (Homo sapiens, UniProt Q13501). Description: Surface plasmon resonance (SPR) compound binding to p62. The settings on record: 15° C. The method, then:
Recombinant p62 protein was buffer exchanged into Biacore SPR running buffer (Cytiva 100671) using the Slide-A-Lyzer Mini Dialysis system 7K MWCO (Thermo Fisher Scientific, Cat no. 69560). The final protein concentration was determined using the Nanodrop One spectrophotometer (Thermo Fisher Scientific, cat no. ND-ONE-W), with calibration for the dialysis buffer.
The prepared protein was diluted in sodium acetate buffer (NaAc, pH 5.5, Cytiva) to concentrations ranging from approximately 0.25-40 μg/mL. Post-immobilization, the protein required approximately 16 hours of equilibration in running buffer supplemented with 1% DMSO at 15° C. to ensure adequate surface equilibration and protein reorganization.
All SPR experiments were conducted at a constant temperature of 15° C. The SPR chip surface was activated using EDC/NHS for a contact time of 6-10 min at a flow rate of 10 μL/min. This was followed by protein immobilization for 2100 seconds and ethanolamine capping for 420 seconds, both at the same flow rate. Immediately after immobilization, the NH2-REEE peptide was analyzed in Single Cycle Kinetics mode (SCK) to verify surface activity, ensuring it binds the sample with the published affinity (˜20 μM by SPR).
For general compound binding studies, experiments were performed at 15° C. using a running buffer composed of 10 mM HEPES, 150 mM NaCl, 1 mM DTT, 0.05% Tween 20, and 1% DMSO at pH 7.4. The test compound was initially prepared at a 20 mM concentration in DMSO and subsequently titrated in 2-fold dilutions. For each assay, 2 μL of the compound was mixed with 198 μL of the running buffer, and the mixture was thoroughly pipetted approximately 15 times for homogenization.
A series of blank injections (0 μM concentration) were included for double referencing, with at least 8 or 16 per plate depending on the format. Typical injection parameters were 120 seconds for association and 180 seconds for dissociation at a flow rate of […]. A four-point solvent correction was prepared with DMSO concentrations ranging from 2% to 0.5% in the buffer. Post each compound injection, the system's needles were washed with 50% DMSO.
Analysis of the SPR data was conducted using the Cytiva Evaluation software. The binding levels at the late time-point of each interaction were corrected for reference, then normalized to percentage bound values to account for variations in immobilization levels, protein molecular weight, and compound molecular weight.
Compound binding studies were carried out according to experimental procedures above and SPR % occupancy was determined and summarized in Table 7.
(In general: In SPR one partner is held on a chip, and binding of the other changes the refractive index at the surface.)
Turning to `O=C(NCCO)c1cccc2c1ccn2Cc1ccccc1` [Compound 4, 1-benzyl-N-(2-hydroxyethyl)-1H-indole-4-carboxamide], the receptor occupancy at 100 µM is below 30%. The same measure, in the same setting: for `OCCNCc1cccc2c1ccn2CC1CCNCC1` [Compound 25, 2-(((1-(piperidin-4-ylmethyl)-1H-indol-4-yl)methyl)amino)ethan-1-ol] the value was below 30%. Same read-out and setting: next, `O=C(CO)NCc1cccc2c1ccn2Cc1ccc(F)cc1` [Compound 46]: 30 to 70%; `COc1ccc(Cn2ccc3c(CNCCO)cccc32)cc1` [Compound 15]: 30 to 70%; `CNCCOCc1cccc2c1ccn2Cc1ccccc1` [Compound 5, 2-((1-benzyl-1H-indol-4-yl)methoxy)-N-methylethan-1-amine]: 30 to 70%. As for `OCCNCc1ccc2ccn(Cc3ccccc3)c2c1` [Compound 2], the receptor occupancy at 100 µM is below 30%. On to `CC(O)CNCc1cccc2c1ccn2Cc1ccccc1` (centres unmarked) [Compound 3], for which the receptor occupancy at 100 µM lay within 30 to 70%. As for `O=C(c1ccccc1)n1ccc2c(CNCCO)cccc21` [Compound 16, (4-(((2-hydroxyethyl)amino)methyl)-1H-indol-1-yl)(phenyl)methanone], the receptor occupancy at 100 µM is above 70%. Turning to `OCCNCc1cccc2c1ccn2CC1CCOCC1` [Compound 24], the receptor occupancy at 100 µM was in the range of 30 to 70%. Regarding `OCCNCc1cccc2c1ccn2CC1CCCCN1` (centres unmarked) [Compound 54], the receptor occupancy at 100 µM is below 30%. Same read-out and setting: next, `O=C(CCO)Nc1cccc2c1ccn2Cc1ccccc1` [Compound 8]: below 30%; `CC(C)OCCNCc1cccc2c1ccn2Cc1ccccc1` [Compound 47]: below 30%; `CC(=O)N1CCC(COCCNCc2cccc3c2ccn3Cc2ccccc2)CC1` [Compound 85, 1-(4-((2-(((1-benzyl-1H-indol-4-yl)methyl)amino)ethoxy)methyl)piperidin-1-yl)ethan-1-one]: below 30%. On the same count and under the same terms, for `OCCNCc1cncc2c1ccn2Cc1ccccc1` [Compound 51] the value was below 30%; for `OCCNCc1cccc2c1ccn2Cc1ccccc1Cl` [Compound 12], 30 to 70%. Still for that read-out and setting: next, `OCCNCc1cccc2c1ccn2Cc1ncc[nH]1` [Compound 22]: below 30%. For `OCCNCc1cccc2c1ccn2Cc1ccncc1` [Compound 14], the receptor occupancy at 100 µM is below 30%. For `O=C(CCO)NCc1cccc2c1ccn2Cc1ccccc1` [Compound 52], the receptor occupancy at 100 µM was below 30%. For the molecule `CC(C)(C)OC(=O)NCCOCCOCCOCCNCc1cccc2c1ccn2Cc1ccc(F)cc1` [Compound 84, tert-butyl (1-(1-(4-fluorobenzyl)-1H-indol-4-yl)-5,8,11-trioxa-2-azatridecan-13-yl)carbamate], the receptor occupancy at 100 µM was below 30%.

Turning to `OCCNCc1c(Cl)ccc2c1ccn2Cc1ccccc1` [Compound 36], the receptor occupancy at 100 µM lay in the range of 30 to 70%.

Consider `O=S(=O)(c1ccccc1)n1ccc2c(CNCCO)cccc21` [Compound 17, 2-(((1-(phenylsulfonyl)-1H-indol-4-yl)methyl)amino)ethan-1-ol], for which the receptor occupancy at 100 µM was 30 to 70%.

Regarding `O=C(NCCO)NCc1cccc2c1ccn2Cc1ccccc1` [Compound 53, 1-((1-benzyl-1H-indol-4-yl)methyl)-3-(2-hydroxyethyl)urea], the receptor occupancy at 100 µM is below 30%. Take `OCCNCc1cccc2c1CCN2Cc1ccccc1` [Compound 40, 2-(((1-benzylindolin-4-yl)methyl)amino)ethan-1-ol]: the receptor occupancy at 100 µM is below 30%. Still for that read-out and setting: for `OC1CC(NCc2cccc3c2ccn3Cc2ccccc2)C1` (centres unmarked) [Compound 7] the value was below 30%; for `OCCNCc1ccnc2c1ccn2Cc1ccccc1` [Compound 50], below 30%. Take `OCCNCc1cccc2c1ccn2CCc1cccnc1` [Compound 29]: the receptor occupancy at 100 µM is below 30%. On to `OCCNCc1cccc2c1CN(Cc1ccccc1)C2` [Compound 42, 2-(((2-benzylisoindolin-4-yl)methyl)amino)ethan-1-ol], for which the receptor occupancy at 100 µM was below 30%. Same read-out and setting: for `OCCNCc1ccc2c(ccn2Cc2ccccc2)c1` [Compound 38] the value was 30 to 70%.
